Test results as given in the NIST ThermoML archive (doi:10.1016/j.jct.2003.08.018).
± gives the expanded uncertainty stated by the source.

Test: activity coefficient (dimensionless); of the first substance listed, at infinite dilution; xn = mol fraction of the nth substance listed
Details: Liquid, Chromatography, x1 = 0

## C=CC=C [1,3-butadiene] + CCCO
260.02 K
  activity coefficient: 4.2 ± 0.19
280.03 K
  activity coefficient: 4.15 ± 0.18
299.99 K
  activity coefficient: 4.1 ± 0.18
320.09 K
  activity coefficient: 4.06 ± 0.18
340.06 K
  activity coefficient: 3.98 ± 0.18

## C=CCC [1-butene] + CCCO
260.03 K
  activity coefficient: 4.13 ± 0.18
280.04 K
  activity coefficient: 4.12 ± 0.18
299.98 K
  activity coefficient: 4.11 ± 0.18
320.03 K
  activity coefficient: 4.05 ± 0.18
340 K
  activity coefficient: 4.01 ± 0.18

## CC(C)C [2-methylpropane] + CCCO
259.98 K
  activity coefficient: 5.48 ± 0.24
279.94 K
  activity coefficient: 5.37 ± 0.24
300.16 K
  activity coefficient: 5.24 ± 0.23
320 K
  activity coefficient: 5.14 ± 0.23
339.92 K
  activity coefficient: 5.05 ± 0.22

## C=C(C)C [2-methylpropene] + CCCO
259.91 K
  activity coefficient: 4.09 ± 0.18
279.95 K
  activity coefficient: 4.08 ± 0.18
299.94 K
  activity coefficient: 4.04 ± 0.18
320.06 K
  activity coefficient: 4 ± 0.18
340.16 K
  activity coefficient: 3.94 ± 0.17

## C/C=C/C [(E)-2-butene] + CCCO
260.02 K
  activity coefficient: 4.2 ± 0.19
280.03 K
  activity coefficient: 4.15 ± 0.18
299.99 K
  activity coefficient: 4.1 ± 0.18
320.09 K
  activity coefficient: 4.06 ± 0.18
340.06 K
  activity coefficient: 3.98 ± 0.18

## CCCC [butane] + CCCO
260.05 K
  activity coefficient: 5.17 ± 0.23
280.05 K
  activity coefficient: 5.06 ± 0.22
299.99 K
  activity coefficient: 5.03 ± 0.22
320.05 K
  activity coefficient: 4.88 ± 0.22

## CCC [propane] + CCCO
259.98 K
  activity coefficient: 4.6 ± 0.2
279.96 K
  activity coefficient: 4.62 ± 0.2
299.96 K
  activity coefficient: 4.64 ± 0.2
320.03 K
  activity coefficient: 4.61 ± 0.2
339.95 K
  activity coefficient: 4.56 ± 0.2

## C=CC [propene] + CCCO
259.92 K
  activity coefficient: 3.58 ± 0.16
279.94 K
  activity coefficient: 3.61 ± 0.16
300.03 K
  activity coefficient: 3.66 ± 0.16
320.02 K
  activity coefficient: 3.64 ± 0.16
340.1 K
  activity coefficient: 3.64 ± 0.16
